Source: ChEMBL document CHEMBL5236666, “Investigation of mitochondrial targeting ability of sydnones and sydnonimines and mitochondria-targeted delivery of celecoxib” (Bioorg Med Chem Lett, 2023)

How the values were obtained:
HeLa [1] = assay: Cytotoxicity against human HeLa cells assessed as inhibition of cell proliferation; format: functional, cell-based
HepG2 [2] = assay: Cytotoxicity against human HepG2 cells assessed as inhibition of cell proliferation; format: functional, cell-based
HeLa [3] = assay: Cytotoxicity against human HeLa cells assessed as inhibition of cell proliferation in presence of 100 uM of DIBAC; format: functional, cell-based
HepG2 [4] = assay: Cytotoxicity against human HepG2 cells assessed as inhibition of cell proliferation in presence of 100 uM of DIBAC; format: functional, cell-based
[5] = Drug uptake in human HeLa cells assessed as increase in colocalization by measuring fluorescence intensity at 5 uM incubated for 30 mins; format: ADME, cell-based; settings: 0.5 h
[6] = Drug uptake in mitochondria of human HeLa cells incubated for 30 mins; format: ADME; settings: 0.5 h

| Drug uptake [6] | SMILES | IC50 (HeLa [1]) [µM] | IC50 (HepG2 [2]) [µM] | further results |
| --- | --- | --- | --- | --- |
| Active | CC1=CC(C)=[N+]2C1=Cc1ccc(CCC(=O)NCCCNC(=O)c3ccc(-[n+]4cc(O)on4)cc3)n1[B-]2(F)F | – | – | – |
| Not Active | CC1=CC(C)=[N+]2C1=Cc1ccc(CCC(=O)NCCCNC(=O)c3ccc(-[n+]4noc(O)c4-c4ccccc4)cc3)n1[B-]2(F)F | – | – | – |

The next lines start with the compound.

| SMILES | Drug uptake [6] | IC50 (HeLa [1]) [µM] | IC50 (HepG2 [2]) [µM] | further results |
| --- | --- | --- | --- | --- |
| CCOC(=O)c1ccc(-[n+]2cc([N-]S(=O)(=O)c3ccc(-n4nc(C(F)(F)F)cc4-c4ccc(C)cc4)cc3)on2)cc1 | – | > 100 | > 100 | IC50 (HeLa [3]): 85.3 µM; IC50 (HepG2 [4]): 66.2 µM |
| O=C(NCCCNC(=O)c1ccc(-[n+]2cc([O-])on2)cc1)OCC1C[C@@H]2C=C[C@H]1C2 (some centres undefined) | – | – | – | Drug uptake [5]: Active |
| Cc1ccc(-c2cc(C(F)(F)F)nn2-c2ccc(S(N)(=O)=O)cc2)cc1 [CELECOXIB] | – | 32.7 | 43.6 | – |
